Reference: US20100222330A1, “New Compounds” (BIOVITRUM AB, priority 2001, published 2010)

Assays:
[1] = tested on: ob/ob mouse; assay: In vivo assay of reduction of food intake (15 h, osmotic minipump infusion); settings: for % Inhibition of Food Intake in ob/ob mice at 50 mg/Kg/day, 15 h: continuous subcutaneous infusion
Procedure: Obese (ob/ob) mouse is selected as the primary animal model for screening as this mutant mouse consumes high amounts of food resulting in a high signal to noise ratio. To further substantiate and compare efficacy data, the effect of the compounds on food consumption is also studied in wild type (C57BL/6J) mice. The amount of food consumed during 15 hours of infusion of compounds is recorded.
Male mice (obese C57BL/6JBom-Lee and lean wild-type C57B1/6JBom; Bomholtsgaard, Denmark) 8-9 weeks with an average body weight of 50 g (obese) and 25 g (lean) are used in all the studies. The animals are housed singly in cages at 23±1° C., 40-60% humidity and have free access to water and standard laboratory chow. The 12/12-h light/dark cycle is set to lights off at 5 p.m. The animals are conditioned for at least one week before start of study.
The test compounds are dissolved in solvents suitable for each specific compound such as cyclodextrin, cyclodextrin/methane sulfonic acid, polyethylene glycol/methane sulfonic acid, saline. Fresh solutions are made for each study. […] The purity of the test compounds is of analytical grade.
The animals are weighed at the start of the study and randomized based on body weight. Alzet osmotic minipumps (Model 2001 D; infusion rate 8 μl/h) are used and loaded essentially as recommended by the Alzet technical information manual (Alza Scientific Products, 1997; Teeuwes and Yam, 1976). Continuous subcutaneous infusion with 24 hours duration is used. The minipumps are either filled with different concentrations of test compounds dissolved in vehicle or with only vehicle solution and maintained in vehicle pre-warmed to 37° C. (approx. 1 h). The minipumps are implanted subcutaneously in the neck/back region under short acting anesthesia (metofane/enflurane). This surgical procedure lasts approximately 5 min. It takes about 3 h to reach steady state delivery of the compound.
(§1) The weight of the food pellets are measured at 5 p.m. and at 8 p.m. for two days before (baseline) and one day after the implantation of the osmotic minipumps. The weigh-in is performed with a computer assisted Mettler Toledo PR 5002 balance. Occasional spillage is corrected for. At the end of the study the animals are killed by neck dislocation and trunk blood sampled for later analysis of plasma drug concentrations.
Food consumption for 15 hours is measured for the three consecutive days and the percentage of basal level values is derived for each animal from the day before and after treatment. The values are expressed as mean±SD and ±SEM from eight animals per dose group. Statistical evaluation is performed by Kruskal-Wallis one-way ANOVA using the percent basal values. If statistical significance is reached at the level of p<0.05, Mann-Whitney U-test for statistical comparison between control and treatment groups is performed.

[2] = Plasma drug concentration at steady state in the food intake study (LC/MS); assay type: in vivo; set-up: unit not given here; settings: ob/ob mouse, trunk blood at end of study
Procedure: as §1
The plasma sample proteins are precipitated with methanol, centrifuged and the supernatant is transferred to HPLC vials and injected into the liquid chromatography/mass spectrometric system. The mass spectrometer is set for electrospray positive ion mode and Multiple Reaction Monitoring (MRM with the transition m/z 316 ? 221). A linear regression analysis of the standards forced through the origin is used to calculate the concentrations of the unknown samples.

SMILES | melting point | % Inhibition of Food Intake in ob/ob mice at 50 mg/Kg/day, 15 h [1] | Free plasma concentration of the compounds at steady state (Css, u) [2] | % Inhibition of Food Intake in ob/ob mice, 15 h ([1]; dose of 100 mg/kg/d (footnote b)) | % Inhibition of Food Intake in ob/ob mice, 15 h ([1]; dose of 14.8 mg/kg/d (footnote a))
Cc1ccc(S(=O)(=O)Nc2ccc(N3CCNCC3)c3ccccc23)cc1.Cl | 181 °C (dec.) |  |  |  | 
Cl.O=S(=O)(Nc1ccc(N2CCNCC2)c2ccccc12)c1ccc2ccccc2c1 [Example 13, 2-N-[4-(1-piperazinyl)-1-naphthyl]naphthalenesulfonamide, hydrochloride] |  | 24.1% | 0.035 |  | 
Cc1ccc(S(=O)(=O)N(C)c2ccc(N3CCNCC3)c3ccccc23)cc1.Cl [Example 14, N,4-Dimethyl-N-[4-(1-piperazinyl)-1-naphthyl]benzenesulfonamide, hydrochloride] |  |  | 0.23 | 41^b % | 
Cl.O=S(=O)(Nc1ccc(N2CCNCC2)c2ccccc12)c1ccc(Br)cc1 [Example 19, 4-Bromo-N-(4-piperazin-1-yl-naphthalen-1-yl)-benzenesulfonamide, hydrochloride] |  | 69.6% | 0.150 |  | 
Cl.O=S(=O)(Nc1ccc(N2CCNCC2)c2ccccc12)c1cccc(C(F)(F)F)c1 [Example 24, 3-Trifluoromethyl-N-[4-(1-piperazinyl)-1-naphthyl]benzenesulfonamide, hydrochloride] |  | 46.2% | 0.0076 |  | 
Cl.O=S(=O)(Nc1ccc(N2CCNCC2)c2ccccc12)c1cccc2ccccc12 [Example 27, Naphthalene-1-sulfonic acid (4-piperazin-1-yl-naphthalen-1-yl)-amide, hydrochloride] |  | 68.9% | 0.008 |  | 
COc1ccc(S(=O)(=O)Nc2ccc(N3CCNCC3)c3ccccc23)cc1.Cl [Example 29, 4-Methoxy-N-(4-piperazin-1-yl-naphthalen-1-yl)-benzenesulfonamide, hydrochloride] |  | 71% | 0.33 |  | 
Cl.O=S(=O)(Nc1ccc(N2CCNCC2)c2ccccc12)c1ccc(Cl)cc1 [Example 30, 4-Chloro-N-(4-piperazin-1-yl-naphthalen-1-yl)-benzenesulfonamide, hydrochloride] |  | 60.1% | 0.275 |  | 
Cc1ccc(F)cc1S(=O)(=O)Nc1ccc(N2CCNCC2)c2ccccc12.Cl [Example 34, 5-Fluoro-2-methyl-N-(4-piperazin-1-yl-naphthalen-1-yl)-benzenesulfonamide, hydrochloride] |  | 51.4% | 0.078 |  | 
Cc1c(Cl)cccc1S(=O)(=O)Nc1ccc(N2CCNCC2)c2ccccc12.Cl [Example 48, 3-Chloro-2-methyl-N-(4-piperazin-1-yl-naphthalen-1-yl)-benzenesulfonamide, hydrochloride] |  | 23.8% | 0.008 |  | 
Cc1cc(Cl)cc(Cl)c1S(=O)(=O)Nc1ccc(N2CCNCC2)c2ccccc12.Cl [Example 53, 2,4-Dichloro-6-methyl-N-(4-piperazin-1-yl-naphthalen-1-yl)-benzenesulfonamide, hydrochloride] |  |  |  |  | 25.7^a %
